Experimental data as given in US20100035941A1, “METHODS FOR INCREASING BLOOD FLOW AND/OR PROMOTING TISSUE REGENERATION” (priority 2006, published 2010).
Several values for one entry are separate records, joined by “and”; a condition that tells them apart may be missing. Equal entries are not always repeated. Where two headings read alike, the source gives them in different places.

Key:
[1] = system: progenitors in DNA synthesis (S) phase of the cell cycle; conditions: for BFU-E Cycling Status of Progenitors / CFU-GEMM Cycling Status of Progenitors / CFU-GM Cycling Status of Progenitors: % progenitors in S phase; for BFU-E Cycling Status of Progenitors / CFU-GEMM Cycling Status of Progenitors / CFU-GM Cycling Status of Progenitors / AGAR Culture CFU-GM Cycling Status of Progenitors: s.c. 80 μg/kg
Procedure: For the progenitor cell numbers and cycling status, the numbers of CFU-GM, BFU-E and CFU-GEMM in methylcellulose cultures by stimulation of the cells with 1 Unit (U)/ml recombinant human (rhu) erythropoietin, 100 U/ml rhu granulocyte-macrophage colony stimulating factor (GM-CSF), 100 U/ml rhu interleukin-3 (IL-3) and 50 ng/ml rhu steel factor (SLF=stem cell factor (SCF)). The CFU-GM were also evaluated in agar cultures stimulated with 100 U/ml rhu GM-CSF and 50 ng/ml rhu SLF. For both types of assays, colonies were scored after 14 day incubation in a humidified atmosphere with 5% CO2 and lowered (5%) O2 tension. Cell cycling status of progenitors was measured using a high specific activity tritiated thymidine kill technique as previously described (Broxmeyer, H. E., et al., Exp. Hematol. (1989) 17:455-459).

white blood cells = conditions: single s.c. 80 μg/kg
Procedure: (§1) Five healthy human volunteers having initial white blood cell counts of 4,500-7,500 cells/mm^3 were used in the study. […] Blood samples were obtained via catheter prior to the dose, and at various times up to 24 hours after dosing.
(§2) The blood samples were evaluated for total white blood cells, CD34 positive progenitor cells (via FACS analysis) as a percentage of total white blood cells, as well as the absolute numbers per mL and cycling status of granulocyte macrophage (CFU-GM), erythroid (BFU-E), and multipotential (CFU-GEMM) progenitor cells.

[2] = system: CD34 positive progenitor cells; conditions: human volunteers; single s.c. 80 μg/kg
Procedure: as §1, §2

[3] = individual donors P1-P5, T = 1 hour
[4] = individual donors P1-P5, T = 3 hours
[5] = individual donors P1-P5, T = 6 hours
[6] = individual donors P1-P5, T = 9 hours
[7] = individual donors P1-P5, T = 24 hours

`c1cc(CN2CCCNCCNCCCNCC2)ccc1CN1CCCNCCNCCCNCC1` [AMD3100, 1,1′-[1,4-phenylene-bis(methylene)]-bis-1,4,8,11-tetraazacyclotetradecane] was tested, and the “BFU-E Cycling Status of Progenitors” value [1, 3] was 3% and 0% (4×), the “CFU-GEMM Cycling Status of Progenitors” value [1, 3] was 6% and 0% (4×) and the “CFU-GM Cycling Status of Progenitors” value [1, 3] was 1% and 0% (4×). The “CFU-GEMM Cycling Status of Progenitors” value [1, 4] was 0% (4×) and 7%, the “BFU-E Cycling Status of Progenitors” value [1, 5] was 0% (4×) and 1% and the “CFU-GEMM Cycling Status of Progenitors” value [1, 5] was 0% (4×) and 8%. The “CFU-GM Cycling Status of Progenitors” value [1, 5] was 0%, the “BFU-E Cycling Status of Progenitors” value [1, 6] was 0% (4×) and 11% and the “CFU-GEMM Cycling Status of Progenitors” value [1, 6] was 4% and 0% (4×). The “CFU-GM Cycling Status of Progenitors” value [1, 6] was 2% and 0% (4×), the “BFU-E Cycling Status of Progenitors” value [1, 7] was 2% and 0% (3×) and 3% and the “CFU-GEMM Cycling Status of Progenitors” value [1, 7] was 0%. For the same molecule, the “CFU-GM Cycling Status of Progenitors” value [1, 7] was 0% (3×) and 3% and 5%, the “AGAR Culture CFU-GM Cycling Status of Progenitors” value (“AGAR Culture CFU-GM Cycling Status” below) [1, 3] was 3% and 0% (4×) and the “AGAR Culture CFU-GM Cycling Status” value [1, 4] was 0% (4×) and 1%. For the same molecule, the “AGAR Culture CFU-GM Cycling Status” value [1, 5] was 1% and 0% (2×) and 3% (2×), the “AGAR Culture CFU-GM Cycling Status” value ([1]; individual donors P2-P5, T = 9 hours) was 0% and the “AGAR Culture CFU-GM Cycling Status” value ([1]; individual donors P2-P5, T = 24 hours) was 0%. For the same molecule, the “cycling state of progenitors” value ([1]; prior to and 1, 3, 6, 9 and 24 hours after injection, human donors) was “slow or non-cycling state”, the “time post-administration at which elevation of the white blood cell count maximized” value (white blood cells; human volunteers) was 6 h and the “mobilization of white blood cells in individual volunteers” value (white blood cells; 2 Hr, volunteers P1-P5) was 12.4 × 10^3 WBC's and 21.4 × 10^3 WBC's and 13.5 × 10^3 WBC's. The “time post-administration at which elevation of CD34 positive progenitor cells maximized” value [2] was 6 h.
